Experiment [1] relates to B. Cereus ATCC 11778. In words: MIC, NCCLS broth microdilution. The class given is cell-based, Bacillus cereus. Particulars: A = B. Cereus ATCC 11778. The text has this:
(§1) In vitro biological activity data were collected for a variety of microorganisms, including Bacillus cereus (ATCC 11778), Staphylococcus aureus (ATCC 27660 (a methicillin resistant strain (MRSA), ATCC 33591 and ATCC 43300); ATCC 13709, a methicillin sensitive strain (MSSA)); Streptococcus pneumoniae (ATCC 51422, a penicillin resistant strain (PRSP)), Enterococcus faecium (ATCC 51559, a vancomycin resistant strain (VRE)), and Staphylococcus epidermidis (ATCC 700586, a methycillin resistant strain (MRSE)). Additionally, antifungal activity data were collected for Candida albicans (ATCC 38247). Minimal inhibition concentrations (MIC's) were determined using the National Committee for Clinical Laboratory Standards (NCCLS) broth microdilution assay in microtiter plates, as set forth in: (1) the guidelines of the National Committee for Clinical Laboratory Standards (NCCLS) Document M7-A4 (NCCLS, 1997); (2) the guidelines of the National Committee for Clinical Laboratory Standards (NCCLS) Document M11-A4 (NCCLS, 1997); and (3) the guidelines and reference method of the National Committee for Clinical Laboratory Standards (NCCLS) Document M27-T (NCCLS, 1995). For antifungal essays, the method recommended in Murray, PR., 1995 Manual of Clinical Microbiology (ASM Press, Washington, D.C.), was employed.
For orientation: Dilution methods test growth across graded concentrations, often in twofold steps.

The subject of experiment [2] is S. aureus ATCC 13709 (methicillin sensitive strain, MSSA). In words: MIC, NCCLS broth microdilution. The experiment is classed as cell-based, Staphylococcus aureus. The note with it: C = S. aureus ATCC 13709.
Description: as §1

The subject of experiment [3] is S. aureus ATCC 27660 (methicillin resistant strain, MRSA). Description: MIC, NCCLS broth microdilution. The experiment is classed as cell-based, Staphylococcus aureus. The note with it: D = S. aureus ATCC 27660.
Description: as §1

The test system of experiment [4] is Candida albicans (ATCC 38247). In words: Antifungal MIC. The experiment is classed as cell-based.
Description: as §1, with “employed. The results are presented in Table A below, which is keyed as follows: […]” for “employed.”

Experiment [5] has as its system methycillin resistant Staphylococcus aureus ATCC 33591. Description: Murine neutropenic thigh model. The class given is in vivo, mice. Particulars: 50 mg/kg intravenously two hours post infection, 6 hr after treatment. As for the experimental part:
A S. aureus ATCC 33591 culture was grown to log phase overnight and diluted in phosphate buffered saline (pH 7.2) to an optical density of about 0.1 at 600 nm, giving an approximate concentration of 10^8 cfu/mL. The suspension was diluted 1:100 in phosphate buffered saline (pH 7.2) for a final concentration of 10^6 cfu/mL.
Outbred female CF1 mice (approx. 20 gram body weight) were rendered neutropenic by treatment with cyclophosphamide (200 mg/kg body weight, intraperitoneal injection) at 2 and 4 days prior to inoculation. Groups of 5 mice were inoculated with 0.05 mL of the bacteria (approx. 10^6 cfu/mL) into the anterior thigh. Each group was treated intravenously two hours post infection with vehicle (phosphate buffered saline) or test compound. The mice were sacrificed at either 6 or 24 hrs after treatment and thighs were collected aseptically. Each thigh was weighed, placed into sterile saline, and homogenized. The tissue homogenates were diluted appropriately for plating on agar plates. Colony counts were recorded (cfu/gram) and compared to control groups.
In vivo efficacy was shown by a decrease in colony count (log cfu/gram of tissue) in the compound-treated animals when compared against the colony count in animals given only the vehicle.

The test system of experiment [6] is E. faecium ATCC 51559 (vancomycin resistant strain, VRE). Description: MIC, NCCLS broth microdilution. The class given is cell-based, Enterococcus faecium. Particulars: B = E. faecium ATCC 51559.
Description: as §1

The test system of experiment [7] is S. aureus ATCC 33591. In words: MIC, NCCLS broth microdilution. The class given is cell-based, Staphylococcus aureus. Particulars: E = S. aureus ATCC 33591.
Description: as §1

Experiment [8] relates to S. epidermidis ATCC 700586 (methycillin resistant strain, MRSE). In words: MIC, NCCLS broth microdilution. Particulars: G = S. epidermidis ATCC 700586. The class given is cell-based, Staphylococcus epidermidis.
Description: as §1

Experiment [9] concerns S. pneumoniae ATCC 51422 (penicillin resistant strain, PRSP). Description: MIC, NCCLS broth microdilution. The note with it: H = S. pneumoniae ATCC 51422. The experiment is classed as cell-based, Streptococcus pneumoniae.
Description: as §1

SMILES strings stand for the structures.

Turning to `Cn1cc(NC(=O)c2cc(NC(=O)c3cc(NC(=O)c4cc5ccccc5cn4)c[nH]3)cn2C)cc1C(=O)NCCN1CCOCC1` [Ib-50], the “Minimum Inhibitory Concentration (MIC)” value in experiment [1], in [2] and in [3] was “+++ (+++ = MIC ≦ 4)” in each case. The MIC entry in experiment [4] is “++ (++ = MIC between 4 and 12)”. The “Colony Count (log cfu/gram) Compound” value in experiment [5] turned out to be 7.97 log cfu/gram.

For `Cc1cc(NC(=O)c2cc(NC(=O)c3cc(NC(=O)c4cc5ccccc5cn4)cn3C)cn2CCCN(C)C)sn1` [Ib-66], the “Minimum Inhibitory Concentration (MIC)” value in experiment [1], in experiment [6], in [2], in experiment [3], in experiment [7] and in experiment [8] was “+++ (+++ = MIC ≦ 4)” in each case. In experiment [9], the “Minimum Inhibitory Concentration (MIC)” value is reported as “+++ (+++ = MIC ≦ 4)”.

With `Cn1cc(NC(=O)c2cc(NC(=O)c3cc(NC(=O)c4cc5ccccc5cn4)cn3C)c[nH]2)cc1C(=O)NCCN1CCOCC1` [Ib-67], the “Minimum Inhibitory Concentration (MIC)” value in experiment [1], in [6], in experiment [2], in experiment [3], in [7] and in experiment [8] was “+++ (+++ = MIC ≦ 4)” throughout. In addition, the “Minimum Inhibitory Concentration (MIC)” value in experiment [9] is “+++ (+++ = MIC ≦ 4)”.

In the case of `Cn1cc(NC(=O)c2cc3ccccc3cn2)cc1C(=O)Nc1cc(C(=O)Nc2cc(C(=O)NCCN3CCCCC3)n(CCN3CCCCC3)c2)n(C)c1` [Ib-68], the “Minimum Inhibitory Concentration (MIC)” value in experiment [1], in [6], in [2], in experiment [3], in experiment [7] and in [8] was “+++ (+++ = MIC ≦ 4)” throughout. For the same compound, the “Minimum Inhibitory Concentration (MIC)” value in experiment [9] is listed as “+++ (+++ = MIC ≦ 4)”.

Turning to `Cn1cc(NC(=O)c2cc(NC(=O)c3cc(NC(=O)c4cc5ccccc5cn4)c[nH]3)cn2C)cc1C(=O)NCCc1ccccn1` [Ib-69], the “Minimum Inhibitory Concentration (MIC)” value was more than 32 µg/mL in [1]; “+++ (+++ = MIC ≦ 4)” in experiment [6]; “+++ (+++ = MIC ≦ 4)” in experiment [2]; “+++ (+++ = MIC ≦ 4)” in experiment [3]; “+++ (+++ = MIC ≦ 4)” in experiment [7]; “+++ (+++ = MIC ≦ 4)” in [8]. The “Minimum Inhibitory Concentration (MIC)” value in [9] is reported as “+++ (+++ = MIC ≦ 4)”.

For the compound `Cn1cc(NC(=O)c2cc(NC(=O)c3cc(NC(=O)c4cc5ccccc5cn4)c[nH]3)cn2C)cc1C(=O)NCCc1ccccn1` [Ib-70], the “Minimum Inhibitory Concentration (MIC)” value in [1], in experiment [6], in experiment [2], in experiment [3], in [7] and in [8] was “+++ (+++ = MIC ≦ 4)” in each case. In addition, the “Minimum Inhibitory Concentration (MIC)” value in experiment [9] was “+++ (+++ = MIC ≦ 4)”.

`Cn1cc(NC(=O)c2cc(NC(=O)c3cc(NC(=O)c4cc5ccccc5cn4)c[nH]3)cn2C)cc1C(=O)NCCN1CCC(F)CC1` [Ib-71]: the “Minimum Inhibitory Concentration (MIC)” value in experiment [1], in [6], in experiment [2], in experiment [3], in experiment [7] and in experiment [8] was “+++ (+++ = MIC ≦ 4)” in each case. In addition, in experiment [9], the “Minimum Inhibitory Concentration (MIC)” value is recorded as “+++ (+++ = MIC ≦ 4)”.

Take `COCn1cc(NC(=O)c2cc3ccccc3cn2)cc1C(=O)Nc1cc(C(=O)Nc2cc(C(=O)NCCN3CCOCC3)n(C)c2)n(C)c1` [Ib-72]: the “Minimum Inhibitory Concentration (MIC)” value in [1], in [6], in [2], in [3], in experiment [7] and in experiment [8] was “+++ (+++ = MIC ≦ 4)” throughout. For the same compound, in experiment [9], the “Minimum Inhibitory Concentration (MIC)” value is on record as “+ (+ = MIC from 12 to 32, inclusive)”.

As for `CC(=O)[O-].Cc1cc(NC(=O)c2cc(NC(=O)c3cc(NC(=O)c4cc5ccccc5cn4)cn3C)cn2CCC[N+](C)(C)C)sn1` [Ib-74], the “Minimum Inhibitory Concentration (MIC)” value in experiment [1], in experiment [6], in experiment [2], in experiment [3], in experiment [7] and in [8] was “+++ (+++ = MIC ≦ 4)” throughout. Also, in [9], the “Minimum Inhibitory Concentration (MIC)” value is recorded as “+++ (+++ = MIC ≦ 4)”.

`Cc1cc(NC(=O)c2cc(NC(=O)c3nc(NC(=O)c4cc5ccccc5cn4)cn3C)cn2CCN2CCOCC2)sn1` [Ib-77]: the “Minimum Inhibitory Concentration (MIC)” value in [1], in [6], in [2], in [3], in experiment [7] and in experiment [8] was “+++ (+++ = MIC ≦ 4)” throughout. Further, in experiment [9], the “Minimum Inhibitory Concentration (MIC)” value was “+++ (+++ = MIC ≦ 4)”.

For the origin of these results see US20040142971A1, “BENZOTHIOPHENE COMPOUNDS HAVING ANTIINFECTIVE ACTIVITY” (GeneSoft, Inc., priority 2001, published 2004).
